The values below come from paper PMC9781268, “2-Arylpropionic Acid Pyrazolamides as Cannabinoid CB2 Receptor Inverse Agonists Endowed with Anti-Inflammatory Properties” (Pharmaceuticals, 2022).

Values after ≈ are worked out from the molar mass of the structure shown. “Also recorded” adds a separate entry of the source.

The subject of one data set is CB1 receptors. Also noted: method as in PMID 22172309. The conditions noted are these: cited from earlier work.
A further data set addresses CB2 receptor. Also noted: method as in PMID 22172309. As to conditions: cited from earlier work; for Ki: CB2 receptor.
For data set [1], the target named is T1, human CB2 (Homo sapiens, UniProt P34972). Kind of data set: Inverse agonist activity, cAMP Hunter CHO-K1 CNR2 Gi cells (HitHunter cAMP XS+). The data set is classed as cell-based. Details: host or cells: cAMP Hunter CHO-K1 CNR2 Gi. The conditions noted are these: inverse agonism, cAMP increase, 8 μM (EC20) forskolin. As to the method: The cellular functional assay used to evaluate the inverse agonist activity of LASSBio-2265 (11) toward the cannabinoid CB2 receptor was carried out at Eurofins DiscoveryX Corporation USA (https://www.discoverx.com/home) under the study number FR095-0025341-Q (accessed on 02 June 2021) using the GPCR Biosensor Assay. Cell line cAMP Hunter CHO-K1 CNR2 Gi was seeded at a total volume of 20 µL into white-walled, 384-well microplates and incubated at 37 °C prior to testing in the presence of 8 μM (EC20) forskolin. The media was aspirated from the cells and replaced with 15 µL a 2:1 solution of Hanks’ balanced salt solution (HBSS)/10 mM Hepes:cAMP XS+ Ab reagent. Intermediate dilution of the sample stocks was performed to generate 4× samples in assay buffer containing 32 μM forskolin. Then, 5 µL of each 4× sample was added to the cells and incubated at 37 °C for 60 min. […] After signal generation, the microplates were read with a PerkinElmer Envision instrument for chemiluminescent signal detection. Compound activity was analyzed using the CBIS data analysis suite (ChemInnovation, San Diego, CA, USA). Percent activity was calculated using the following formula: […]
T1 sequence (P34972 whole entry): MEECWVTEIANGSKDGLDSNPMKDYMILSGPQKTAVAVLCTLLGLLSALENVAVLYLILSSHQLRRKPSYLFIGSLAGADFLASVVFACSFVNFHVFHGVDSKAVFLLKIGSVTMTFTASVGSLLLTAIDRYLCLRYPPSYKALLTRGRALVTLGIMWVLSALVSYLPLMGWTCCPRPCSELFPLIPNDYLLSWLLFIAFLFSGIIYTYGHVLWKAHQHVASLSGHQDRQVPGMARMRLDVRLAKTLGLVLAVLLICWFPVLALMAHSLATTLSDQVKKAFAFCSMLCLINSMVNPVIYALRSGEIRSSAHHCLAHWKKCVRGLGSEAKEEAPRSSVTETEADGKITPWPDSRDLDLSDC
(§1) Data obtained from duplicate experiments were fit to concentration-response curves by non-linear regression of the Hill equation. Curve-fit parameters and standard errors were calculated using GraphPad Prism 6.0 (Hercules, CA, USA).

For data set [2], the target named is T1, human CB2. As to the kind of experiment: Human CB2 (agonist radioligand) receptor binding assay, [3H]-WIN 55212-2. Also noted: host or cells: cAMP Hunter CHO-K1 CNR2 Gi. The conditions noted are these: membranes from CB2-expressing CHO cells, [3H]-WIN55212-2 radioligand, duplicate. How it is done: Assays of binding to CB2 receptors were performed at Eurofins Discovery France (https://www.eurofinsdiscoveryservices.com/) under the study number 100057099 (accessed on 3 June 2021) using the protocol previously published by Munro, Thomas, and Abu-Shaar. Human recombinant CB2 receptors were expressed in CHO cells, and binding was performed with [^3H]-WIN 55212-2, which is a nonselective agonist radioligand. The analysis was performed using software developed at Cerep (Hill software, Santa Barbara, CA, USA) and SigmaPlot 4.0 for Windows (^©1997 by SPSS Inc., Chicago, IL, USA).
as §1

Data set [3] can be described thus: Parallel artificial membrane permeability assay, blood-brain barrier (PAMPA-BBB). As to conditions: for Papp at 2.75 h, 0.2 mg/mL: PAMPA, pH 7.4; for Classification / Pe experimental: Table S2, PAMPA-BBB; for PAMPA-BBB Score: porcine brain lipid membrane. How it is done: In a 5 mL glass vial, 1 mg of each compound (test or control) was dissolved in 1 mL of ethanol. Then, 500 μL of ethanol and 3.5 mL of PBS at pH 7.4 were added to this solution. […] After 5 min, the donor plate received 180 μL of each compound solution in triplicate. […] The experiments were performed in triplicate with two different analyses (n = 2).

In data set [4] the target is T1, human CB2. As to the kind of experiment: Agonist activity, cAMP in CB2-transfected CHO cells. The data set is classed as cell-based. Also noted: host or cells: CHO cells. The conditions noted are these: CB2-expressing CHO cells, from 1 μM. As to the method: (§2) Negative and blank controls were performed in triplicate with and without the addition of forskolin, respectively.

Data set [5] is described as follows: Distribution coefficient at pH 7.4 (shake-flask, octanol/phosphate buffer). The data set is classed as physicochemical. As to conditions: 1-octanol/buffer pH 7.4; n-octanol/buffer partitioning at pH 7.4, UV method; read-out: Log D7.4. As to the method: The assay was performed based on the shake-flask method and the absorbance readings by ultraviolet spectroscopy at maximum absorbance wavelength. To a Falcon tube with a capacity of 15 mL, 5 mL of buffer solution at pH 7.4 and 5 mL of 1-octanol were added. Then, the tested compounds were added at defined concentrations of approximately 10–15 µM, and the mixtures were homogenized via vigorous manual shaking. Next, the Falcon tubes were stirred for 4 h at 37 °C, and the experiment was carried out in triplicate for each compound. Subsequently, each sample was placed in a separatory funnel, and the collected aqueous phase was filtered through a 0.45 µm PVDF filter and transferred to a quartz cuvette (10 mm optical path) for UV/Vis reading. The distribution coefficient of each compound at pH 7.4 was determined by linear regression using the straight-line equation [33].

The next data set deals with plasma carboxylesterases. Kind of data set: Plasma stability against enzymatic hydrolysis. The data set is classed as in vitro ADME, Wistar rats. The conditions noted are these: rat plasma, determined after 240 min. How it is done:
For the evaluation of plasma stability against plasma carboxylesterases, a pool of plasma male Wistar rats weighing 300–360 g kept in the vivarium of the Laboratory of Biochemical and Molecular Pharmacology-UFRJ was used. Blood was collected with heparin and kept on ice. Then, the samples were centrifuged at 2000 rpm for 15 min at 20 °C, with subsequent removal of the plasma. The plasma was then diluted 80% (v/v) with phosphate buffer (PBS; pH = 7.4) at 37 °C. The experiments performed in this work were approved by the Ethics Committee on the Use of Animals in Scientific Experiments of the Health Sciences Center of the Federal University of Rio de Janeiro (Number 028/15). The biological matrix was incubated at 37 °C under agitation for 30, 60, 120, and 240 min. The degree of degradation was evaluated by HPLC-PDA with methyl 1,1′bisphenyl-4-carboxylate as an internal standard (PI), using an isocratic mobile phase of 70%:30% acetonitrile:water (0–15 min), an injection volume of 20 μL, a flow rate of 1 mL/min, and detection at 254 nm.

The subject of data set [6] is formalin-induced licking behavior in mice. As to the kind of experiment: Formalin-induced licking behavior. The data set is classed as in vivo, Swiss Webster mice. How it is done:
This assay was performed as described by Hunskaar et al. and adapted by Gomes et al.. This model was characterized by a response that occurred in two phases. The first phase (acute neurogenic pain) occurred during the first 5 min after the intraplantar injection of formalin, and the second phase (inflammatory pain) occurred 15 to 30 min post-injection. Mice were pretreated with oral doses of LASSBio-2265 (11, at 1, 3 or 10 mg/kg, p.o.), morphine (2.5 mg/kg, i.p.), acetylsalicylic acid (ASA, 200 mg/kg, p.o.), or the vehicle (same amount of DMSO used to solubilize the substances + NaCl 0.9%) 60 min before the administration of formalin. […] Then, mice (n = 7 per group) received 20 μL of formalin (2.5% v/v) in the dorsal surface of the left hind paw. The time that the mice spent licking the injected paw was immediately recorded. […] The final volume administered to mice was 0.1 mL.

A short description of data set [7]: Parallel artificial membrane permeability assay, gastrointestinal (PAMPA-GI / PAMPA-GTI). As to conditions: for Papp at 8 h, 0.5 mM: PAMPA; for Classification / Pe Exp / Fa: Table S1, PAMPA-GTI; for Fa / PAMPA-GI Fa Exp: absorbed fraction; for PAMPA-GI Fa Exp: soybean L-α-phosphatidylcholine membrane.
Experimental: A 10 mM solution of each compound (tests and controls) was prepared in DMSO. Then, in a 5 mL glass flask, 250 µL of the freshly prepared solution was homogenized with 4750 µL of PBS at pH 6.6 to a concentration of 10 mM. The solution was then filtered in a 0.45 µm PVDF filter and set aside. Then, 180 µL of a solution of phosphate-bufffered saline (PBS, pH 7.4):DMSO (95:5) was added to the wells of the receptor plate, and 5 µL of the soy L-α-phosphatidylcholine lipid solution (20 mg/mL in dodecane) was added to the wells of the donor plate. After 5 min, the donor plate received 180 µL of the reserved solution containing each compound. […] After this period, the donor plate was removed, and the contents of the recipient plate were transferred to a UV reading plate and read (SpectraMax 5, Molecular Devices) at the maximum wavelengths for each compound. The blank was prepared with 180 µL of PBS solution (pH 7.4):DMSO (95:5). The experiments were carried out in triplicate with two different analyses (n = 2) [37]. The optical density values obtained from the readings at each selected wavelength for each of the compounds were analyzed by comparison with the values of the controls. These values were used to determine the absorbed fraction (Fa %) using the JMP® program version 10.0.
The next data set addresses T2, human CB1 (Homo sapiens, UniProt P21554).
T2 construct: host or cells: CHO cells
Kind of data set: Agonist activity, cAMP in CB1-transfected CHO cells. The data set is classed as cell-based. As to conditions: CB1-expressing CHO cells. As to the method:
as §2

The nature of data set [8]: Aqueous solubility (thermodynamic, UV spectroscopy). The data set is classed as physicochemical. The conditions noted are these: aqueous buffer, thermodynamic from solid, phosphate buffer pH 7.4, 37 °C. As to the method:
The test was performed based on the absorbance obtained by ultraviolet spectroscopy. The scanning wavelength was determined according to the highest absorbance observed for each compound. Saturated aqueous solution of the analyzed compounds were stirred for 4 h at 37 °C, and then filtered through a 0.45 µm PVDF filter and transferred to a quartz cuvette (10 mm optical path) for reading. Solubility was determined by linear regression based on the equation of the line.

T2 sequence (P21554 whole entry): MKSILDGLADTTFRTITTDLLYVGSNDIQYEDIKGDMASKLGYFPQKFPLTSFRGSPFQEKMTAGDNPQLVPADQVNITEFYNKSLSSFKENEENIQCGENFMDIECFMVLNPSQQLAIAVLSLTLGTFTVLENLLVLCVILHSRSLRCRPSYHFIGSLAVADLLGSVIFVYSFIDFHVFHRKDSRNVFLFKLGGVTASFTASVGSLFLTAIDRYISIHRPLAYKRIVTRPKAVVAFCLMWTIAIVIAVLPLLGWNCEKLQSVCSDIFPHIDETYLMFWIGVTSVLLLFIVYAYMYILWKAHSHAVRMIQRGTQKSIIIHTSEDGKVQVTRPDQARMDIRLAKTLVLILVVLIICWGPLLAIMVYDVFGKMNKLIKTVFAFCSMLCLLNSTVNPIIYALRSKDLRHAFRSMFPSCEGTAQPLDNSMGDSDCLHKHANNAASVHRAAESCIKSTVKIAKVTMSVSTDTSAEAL

With `CCCCC/C=C\C/C=C\C/C=C\C/C=C\CCCC(=O)Nc1c(C)n(C)n(-c2ccccc2)c1=O` [Compound 5], the “Affinity for CB1 receptors” value in the data set with CB1 receptors is “micromolar affinity”. On CB2 receptor, the Ki was 5.4 µM and the “Affinity for CB2 receptors” value is reported as “micromolar affinity”.

On to `Cc1c(N(C)C(=O)C(C)c2ccc(-c3ccccc3)c(F)c2)c(=O)n(-c2ccccc2)n1C` (stereo not drawn) [Compound 11, N-(1,5-dimethyl-3-oxo-2-phenyl-2,3-dihydro-1H-pyrazol-4-yl)-2-(2-fluoro-[1,1’-biphenyl]-4-yl)-N-methylpropanamide], for which the Emax on human CB2 [1] (CHO-K1, read-out: Emax (efficacy, % of the maximum effect)) was 63%. Besides, on human CB2 [1], the EC50 amounted to 0.369 ± 0.03 µM. Further, the Ki on human CB2 [2] was 16 µM. In addition, in [3], the Papp at 2.75 h, 0.2 mg/mL amounted to 9.26 ×10⁻⁶ cm/s; the Classification entry is “CNS +”; the Pe experimental is 9,26 10-6 cm s-1; the “PAMPA-BBB Score” value is given as “CNS+ (CNS+ (high predicted BBB permeability) Pe > 4.0 × 10^−6 cm/s)”. Moreover, on human CB2 [4], the “Effect on cAMP concentration” value is listed as “important effect starting from 1 μM”. Besides, in data set [5], the logD came out at 1.98. The “Plasma Metabolization Rate” value in the data set on plasma carboxylesterases turned out to be 13.04%. The “Antinociceptive effect in the formalin test” value in data set [6] (3 mg/kg) was “decreased pain behaviour”. In addition, in [6] (LASSBio-2265 1, 3 and 10 mg/kg p.o., morphine 2.5 mg/kg, ASA 200 mg/kg, listed as LASSBio-2265 (11)), the “Analgesia in the second (late, inflammatory) phase of the formalin test” value is “remarkable analgesic activity in the late inflammatory phase; also recorded: comparable to both morphine and ASA”. Besides, in [6] (morphine 2.5 mg/kg i.p., ASA 200 mg/kg p.o., LASSBio-2265 1, 3 and 10 mg/kg p.o., compared to vehicle), the “Analgesia in the first phase of the formalin test” value was “only morphine (2.5 mg/kg) promoted significant analgesia”. Also, in [7], the Papp at 8 h, 0.5 mM turned out to be 10.2 ×10⁻⁶ cm/s; the Classification entry is “HIGH (high intestinal permeability: >70%)”; the “Pe Exp” value is reported as 10,18 10-6 cm/s; the Fa is given as 97,91%. Also, in data set [7], the “PAMPA-GI Fa Exp” value is given as 97.91%. The “Effect on cAMP concentration” value on human CB1 is “no effect was observed”. Besides, the solubility at 4 h in data set [8] came out at 68.5 µM (≈ 30.4 µg/mL).

As for `CCCCC/C=C\C/C=C\C/C=C\C/C=C\CCCC(=O)N(C)c1c(C)n(C)n(-c2ccccc2)c1=O` [Compound 6], the “Affinity for CB1 receptors” value in the data set with CB1 receptors is “micromolar affinity”. For the same compound, on CB2 receptor, the Ki was 3 µM and the “Affinity for CB2 receptors” value is “micromolar affinity”.

For the compound `Cc1c(NC(=O)Cc2ccc(-c3ccccc3)cc2)c(=O)n(-c2ccccc2)n1C` [Compound 9, 2-([1,1’-biphenyl]-4-yl)-N-(1,5-dimethyl-3-oxo-2-phenyl-2,3-dihydro-1H-pyrazol-4-yl) acetamide], the melting point worked out at 221.8 °C. Further, in data set [3], the Papp at 2.75 h, 0.2 mg/mL turned out to be 4.51 ×10⁻⁶ cm/s; the Classification result is reported as “CNS +”; the Pe experimental was 4,51 10-6 cm s-1; the “PAMPA-BBB Score” value was “CNS+ (CNS+ (high predicted BBB permeability) Pe > 4.0 × 10^−6 cm/s)”. In [5], the logD was 2.14. In addition, in the data set with plasma carboxylesterases, the “Plasma Metabolization Rate” value was 24.56%. Further, in data set [7], the Papp at 8 h, 0.5 mM worked out at 11 ×10⁻⁶ cm/s; the Classification entry was “HIGH (high intestinal permeability: >70%)”; the “Pe Exp” value is on record as 11,00 10-6 cm/s; the Fa is 98,47%. Besides, the “PAMPA-GI Fa Exp” value in data set [7] turned out to be 98.47%. In addition, in data set [8], the solubility at 4 h came out at 21.3 µM (≈ 8.47 µg/mL).
